In series [1] the target is hNav1.5 sodium channel, fast current (Homo sapiens, UniProt Q14524). Briefly: Whole cell patch clamp, fast sodium current of hNav1.5 in HEK293 cells. Particulars: pH 7.4. The method, then:
(§1) To study the […] Nav1.5 channel, a cell line stably expressing […] (Gene ID: 6331, https://www.ncbi.nlm.nih.gov/gene/6331) encoding a human Nav1.5 channel in HEK293 cells was used.
(§2) Pulse-protocol uses a protocol that gives a −15 mV stimulus for 385 ms at a holding voltage of −120 mV, and then returns to a holding voltage of −120 mV, and the current generated with the −15 mV stimulus (fast current) and the current just before returning to −120 mV (late current) was measured.
(§3) The composition of the external solution used in the experiment is as follows: 137 mM NaCl, 4 mM KCl, 1.8 mM CaCl2) mM, 1 mM MgCl2, 10 mM HEPES, 11 mM D-Glucose, pH 7.4 (NaOH), 280 mOsm.
(§4) The composition of the internal solution used in the experiment is as follows: 130 mM CsCl, 1 mM MgCl2, 7 mM NaCl, 5 mM HEPES, 5 mM EGTA, pH 7.2 (CsOH), 270 mOsm.
(The patch-clamp technique gives a direct electrical read-out from membranes.)

Series [2] deals with hNav1.5 sodium channel, late current (Homo sapiens, UniProt Q14524). Nature of the series: Whole cell patch clamp, late sodium current of hNav1.5 in HEK293 cells (veratridine-activated). As to conditions: human, pH 7.4. The method, then:
as §1, §2, §3, §4

The target of series [3] is human recombinant sodium ion channel Nav1.5 (hNav1.5), late current (Homo sapiens, UniProt Q14524). The series is described as above. The protocol: as §1, §2, §3, §4
Chain of human recombinant sodium ion channel Nav1.5 (hNav1.5), late current (Q14524 whole entry): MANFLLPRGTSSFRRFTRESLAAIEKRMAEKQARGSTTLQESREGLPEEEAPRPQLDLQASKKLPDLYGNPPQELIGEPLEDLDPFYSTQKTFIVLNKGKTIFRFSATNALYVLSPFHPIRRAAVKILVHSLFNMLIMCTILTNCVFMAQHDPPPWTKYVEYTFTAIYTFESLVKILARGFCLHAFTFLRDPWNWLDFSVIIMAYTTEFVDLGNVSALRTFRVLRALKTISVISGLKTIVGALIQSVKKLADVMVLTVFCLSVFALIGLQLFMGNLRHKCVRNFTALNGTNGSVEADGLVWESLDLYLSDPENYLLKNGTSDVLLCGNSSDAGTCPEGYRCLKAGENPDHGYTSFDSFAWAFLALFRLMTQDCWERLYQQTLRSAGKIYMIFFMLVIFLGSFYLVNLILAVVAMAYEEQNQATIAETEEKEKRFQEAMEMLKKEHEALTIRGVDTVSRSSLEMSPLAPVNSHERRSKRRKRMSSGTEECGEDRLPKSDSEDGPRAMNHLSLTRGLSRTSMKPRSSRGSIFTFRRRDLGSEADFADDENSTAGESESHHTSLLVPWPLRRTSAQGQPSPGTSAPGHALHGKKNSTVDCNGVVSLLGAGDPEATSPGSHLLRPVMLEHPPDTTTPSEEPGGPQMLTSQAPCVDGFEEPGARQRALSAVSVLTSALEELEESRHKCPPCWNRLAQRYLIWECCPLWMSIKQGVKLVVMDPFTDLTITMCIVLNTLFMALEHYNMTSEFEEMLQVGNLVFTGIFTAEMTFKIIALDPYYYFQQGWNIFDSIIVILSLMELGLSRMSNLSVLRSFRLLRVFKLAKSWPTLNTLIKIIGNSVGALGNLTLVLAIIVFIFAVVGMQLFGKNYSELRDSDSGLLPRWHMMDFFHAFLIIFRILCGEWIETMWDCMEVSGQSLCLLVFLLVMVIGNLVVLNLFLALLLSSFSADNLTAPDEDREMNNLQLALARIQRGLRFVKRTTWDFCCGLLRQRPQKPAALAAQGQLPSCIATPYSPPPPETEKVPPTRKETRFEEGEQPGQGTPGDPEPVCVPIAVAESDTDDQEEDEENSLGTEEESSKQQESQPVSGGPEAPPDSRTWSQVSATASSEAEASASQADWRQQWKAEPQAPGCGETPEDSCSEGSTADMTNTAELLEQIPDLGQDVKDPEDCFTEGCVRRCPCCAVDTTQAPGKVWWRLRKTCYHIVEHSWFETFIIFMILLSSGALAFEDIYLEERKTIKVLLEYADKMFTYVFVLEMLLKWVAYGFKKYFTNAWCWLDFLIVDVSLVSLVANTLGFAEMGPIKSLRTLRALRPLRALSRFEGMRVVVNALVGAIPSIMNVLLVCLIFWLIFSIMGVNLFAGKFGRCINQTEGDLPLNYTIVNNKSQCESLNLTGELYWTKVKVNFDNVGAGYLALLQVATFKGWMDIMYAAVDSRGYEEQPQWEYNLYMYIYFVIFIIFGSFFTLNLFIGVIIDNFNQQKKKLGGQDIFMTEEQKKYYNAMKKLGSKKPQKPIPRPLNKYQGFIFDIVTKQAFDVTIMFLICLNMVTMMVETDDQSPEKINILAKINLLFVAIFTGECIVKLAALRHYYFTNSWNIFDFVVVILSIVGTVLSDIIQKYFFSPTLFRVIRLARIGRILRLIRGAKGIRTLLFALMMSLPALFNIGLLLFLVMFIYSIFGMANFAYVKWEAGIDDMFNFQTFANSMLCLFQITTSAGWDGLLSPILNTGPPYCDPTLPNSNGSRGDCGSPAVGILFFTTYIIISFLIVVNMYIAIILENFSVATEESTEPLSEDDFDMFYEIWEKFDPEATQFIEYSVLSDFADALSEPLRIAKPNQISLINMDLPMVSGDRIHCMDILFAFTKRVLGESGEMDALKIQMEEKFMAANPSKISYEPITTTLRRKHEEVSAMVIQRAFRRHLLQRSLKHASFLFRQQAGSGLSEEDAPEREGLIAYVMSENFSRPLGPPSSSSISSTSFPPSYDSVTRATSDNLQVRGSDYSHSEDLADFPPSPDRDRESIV
Setting [4] is: HEK293 cells stably expressing human Nav1.5 (SCN5A).

The results in this text go back to US11406620B2, “Use of carbamate compound for preventing or treating diseases associated with increase in late sodium current” (SK BIOPHARMACEUTICALS CO., LTD., priority 2017, dated 2022).

Chain of hNav1.5 sodium channel, fast current (Q14524 whole entry): as above

The term inhibition denotes how much of the control response was suppressed. A higher inhibition goes with strong suppression. Take `NC(=O)N1c2ccccc2C=Cc2ccccc21` [Carbamazepine]: the inhibition at 10 μM in series [1] (setting [4]) amounted to 7.7%; in series [2] (setting [4]), 20.4%. The inhibition at 30 μM in series [1] (setting [4]) stood at 12.3%; in series [2] (setting [4]) it was 36.2%. The results for the inhibition at 100 μM in series [1] (setting [4]) and in series [2] (setting [4]) were 24.5% and 65.4%, respectively. The inhibition at 300 μM in series [1] (setting [4]) turned out to be 51.4%; in series [2] (setting [4]) it was 86.9%. For the same compound, the “Inhibition ratio of late current/fast current” value in series [3] (10 μM) was determined as 2.6; in series [3] (30 μM), 2.9; in series [3] (100 μM), 2.7; in series [3] (300 μM), 1.7.

On to `Nc1nnc(-c2cccc(Cl)c2Cl)c(N)n1` [Lamotrigine, lamotrigine], for which the inhibition at 10 μM came to 8.3% in series [1] (setting [4]) and 10.7% in series [2] (setting [4]). The results for the inhibition at 30 μM in series [1] (setting [4]) and in series [2] (setting [4]) were 16.6% and 32.9%, respectively. The results for the inhibition at 100 μM in series [1] (setting [4]) and in series [2] (setting [4]) were 29% and 56.7%, respectively. Moreover, the inhibition at 300 μM in series [1] (setting [4]) was found to be 51.2%; in series [2] (setting [4]), 80.1%. Further, the “Inhibition ratio of late current/fast current” value in series [3] (10 μM) turned out to be 1.3; in series [3] (30 μM), 2.0; in series [3] (100 μM), 2.0; in series [3] (300 μM) it was 1.6.

With `NC(=O)O[C@@H](Cn1ncnn1)c1ccccc1Cl` [Test compound, carbamic acid (R)-1-(2-chlorophenyl)-2-tetrazol-2-yl-ethyl ester], the inhibition at 10 μM in series [1] came out at 3%; in series [2], 11.4%. The inhibition at 30 μM in series [1] amounted to 5.7%; in series [2] it was 24%. Also, the inhibition at 100 μM turned out to be 13% in series [1] and 33.9% in series [2]. The inhibition at 300 μM in series [1] came to 26.2%; in series [2], 49.8%. The “Inhibition ratio of late current/fast current” value is reported as 3.8 in series [3] (10 μM), 4.2 in series [3] (30 μM), 2.6 in series [3] (100 μM) and 1.9 in series [3] (300 μM). For the same compound, in series [3] (at a concentration in the drug effective concentration range, compared to the comparative compounds), the “Selectivity of inhibition of late versus fast sodium current (in words)” value is on record as “inhibited the late sodium current more selectively than the fast sodium current”.
